Data published in publication PMC9250534, “Synthesis and direct assay of large macrocycle diversities by combinatorial late-stage modification at picomole scale” (Nature Communications, 2022).

target: MDM2 (Homo sapiens, UniProt Q00987); assay: MDM2 binding screen of Libraries 3 and 4: displacement of fluorescent probe F-M8 at 750 nM macrocycle; details: Panel b, Library 3: 63 scaffolds combinatorially acylated with 15 carboxylic acids at 30 picomole scale; displacement of fluorescent peptide probe; macrocycle 750 nM
In short: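 Cyclic peptide scaffolds were acylated in DMSO with carboxylic acids (20 equiv.), HBTU and DABCO for 6 h at room temperature. Reactions were quenched overnight in 100 mM Tris-Cl pH 7.4, 0.01% Tween20. The fluorescein conjugate was also competed with nutlin-3a.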

Chain of MDM2 (Q00987 whole entry): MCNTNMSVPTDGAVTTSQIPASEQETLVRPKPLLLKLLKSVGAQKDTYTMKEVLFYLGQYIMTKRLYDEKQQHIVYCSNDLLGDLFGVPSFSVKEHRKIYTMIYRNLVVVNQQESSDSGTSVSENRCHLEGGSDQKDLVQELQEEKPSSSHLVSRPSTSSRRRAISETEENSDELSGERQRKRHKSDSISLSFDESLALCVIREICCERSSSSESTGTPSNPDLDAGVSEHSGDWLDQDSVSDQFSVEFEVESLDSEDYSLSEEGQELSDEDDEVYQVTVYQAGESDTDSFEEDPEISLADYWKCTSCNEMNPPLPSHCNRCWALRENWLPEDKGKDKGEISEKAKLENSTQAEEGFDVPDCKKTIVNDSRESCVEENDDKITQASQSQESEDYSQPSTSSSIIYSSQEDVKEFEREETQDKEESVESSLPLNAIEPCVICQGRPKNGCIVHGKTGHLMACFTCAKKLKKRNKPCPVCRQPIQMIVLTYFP

Row | fraction of fluorescent probe displaced | Compound
1 | 0.031 | CN1C(=O)CN(CCNC(=O)c2ccc3ccccc3c2)C(=O)C2(CC2)CNC(=O)CCSSCCNC(=O)[C@@H]1Cc1c[nH]c2ccccc12 [X-Amcp-N-Aeg-NMe-Trp + Acid 107]
2 | -0.00533 | CN1C(=O)CN(CCNC(=O)/C=C/c2ccc(OCc3ccccc3)cc2)C(=O)C2(CC2)CNC(=O)CCSSCCNC(=O)[C@@H]1Cc1c[nH]c2ccccc12 [X-Amcp-N-Aeg-NMe-Trp + Acid 110]
3 | 0.00133 | CN1C(=O)CN(CCNC(=O)c2cccc(Oc3ccccc3)c2)C(=O)C2(CC2)CNC(=O)CCSSCCNC(=O)[C@@H]1Cc1c[nH]c2ccccc12 [X-Amcp-N-Aeg-NMe-Trp + Acid 111]
4 | -0.019 | CN1C(=O)CN(CCNC(=O)/C=C/c2ccc3ccccc3c2)C(=O)C2(CC2)CNC(=O)CCSSCCNC(=O)[C@@H]1Cc1c[nH]c2ccccc12 [X-Amcp-N-Aeg-NMe-Trp + Acid 112]
5 | 0.00133 | O=C1CCSSCCNC(=O)[C@H](Cc2c[nH]c3ccccc23)NC(=O)CN(CCNC(=O)c2ccc(Cl)cc2)C(=O)C2(CC2)CN1 [X-Amcp-N-Aeg-Trp + Acid 25]
6 | -0.015 | O=C1CCSSCCNC(=O)C(Cc2c[nH]c3ccccc23)NC(=O)CN(CCNC(=O)C2CC2c2ccccc2)C(=O)C2(CC2)CN1 (stereo not shown) [X-Amcp-N-Aeg-Trp + Acid 105]
7 | 0.018 | O=C1CCSSCCNC(=O)[C@H](Cc2c[nH]c3ccccc23)NC(=O)CN(CCNC(=O)c2ccc3ccccc3c2)C(=O)C2(CC2)CN1 [X-Amcp-N-Aeg-Trp + Acid 107]
8 | 0.015 | O=C(/C=C/c1ccc(OCc2ccccc2)cc1)NCCN1CC(=O)N[C@@H](Cc2c[nH]c3ccccc23)C(=O)NCCSSCCC(=O)NCC2(CC2)C1=O [X-Amcp-N-Aeg-Trp + Acid 110]
9 | 0.041 | O=C(/C=C/c1ccc2ccccc2c1)NCCN1CC(=O)N[C@@H](Cc2c[nH]c3ccccc23)C(=O)NCCSSCCC(=O)NCC2(CC2)C1=O [X-Amcp-N-Aeg-Trp + Acid 112]
10 | 0.035 | CC(Oc1cccc(Cl)c1)C(=O)NCCN1CC(=O)N[C@@H](Cc2c[nH]c3ccccc23)C(=O)NCCSSCCC(=O)NCC2(CC2)C1=O (stereo partly shown) [X-Amcp-N-Aeg-Trp + Acid 113]
11 | 0.021 | O=C(CCS(=O)(=O)c1ccccc1)NCCN1CC(=O)N[C@@H](Cc2c[nH]c3ccccc23)C(=O)NCCSSCCC(=O)NCC2(CC2)C1=O [X-Amcp-N-Aeg-Trp + Acid 114]
12 | 0.028 | O=C(/C=C/c1ccc(Cl)cc1)NC[C@H]1NC(=O)[C@@H]2CN(CCO2)C(=O)CCSSCCNC(=O)[C@H](Cc2cccc3ccccc23)NC1=O [X-Cop-D-Dap-1-NaI + Acid 108]
13 | 0.048 | O=C(/C=C/c1ccc(OCc2ccccc2)cc1)NC[C@H]1NC(=O)[C@@H]2CN(CCO2)C(=O)CCSSCCNC(=O)[C@H](Cc2cccc3ccccc23)NC1=O [X-Cop-D-Dap-1-NaI + Acid 110]
14 | 0.008 | O=C(NCC1NC(=O)C2CN(CCO2)C(=O)CCSSCCNC(=O)C(Cc2cccc3ccccc23)NC1=O)c1cccc(Oc2ccccc2)c1 [X-Cop-D-Dap-1-NaI + Acid 111]
15 | 0.008 | CC(Oc1cccc(Cl)c1)C(=O)NC[C@H]1NC(=O)[C@@H]2CN(CCO2)C(=O)CCSSCCNC(=O)[C@H](Cc2cccc3ccccc23)NC1=O (stereo partly drawn) [X-Cop-D-Dap-1-NaI + Acid 113]
16 | 0.008 | O=C(CCS(=O)(=O)c1ccccc1)NC[C@H]1NC(=O)[C@@H]2CN(CCO2)C(=O)CCSSCCNC(=O)[C@H](Cc2cccc3ccccc23)NC1=O [X-Cop-D-Dap-1-NaI + Acid 114]
17 | -0.00533 | O=C(NC[C@H]1NC(=O)[C@@H]2CN(CCO2)C(=O)CCSSCCNC(=O)[C@H](Cc2ccc3ccccc3c2)NC1=O)c1ccc(Cl)s1 [X-Cop-D-Dap-2-Nal + Acid 14]
18 | 0.00133 | O=C(NC[C@H]1NC(=O)[C@@H]2CN(CCO2)C(=O)CCSSCCNC(=O)[C@H](Cc2ccc3ccccc3c2)NC1=O)c1ccc(Cl)cc1 [X-Cop-D-Dap-2-Nal + Acid 25]
19 | 0.00455 | O=C(NCC1NC(=O)C2CN(CCO2)C(=O)CCSSCCNC(=O)C(Cc2ccc3ccccc3c2)NC1=O)c1ccc2ccccc2c1 [X-Cop-D-Dap-2-Nal + Acid 107]
20 | 0.035 | O=C(C=Cc1ccc(OCc2ccccc2)cc1)NCC1NC(=O)C2CN(CCO2)C(=O)CCSSCCNC(=O)C(Cc2ccc3ccccc3c2)NC1=O [X-Cop-D-Dap-2-Nal + Acid 110]
21 | 0.00133 | O=C(NC[C@H]1NC(=O)[C@@H]2CN(CCO2)C(=O)CCSSCCNC(=O)[C@H](Cc2ccc3ccccc3c2)NC1=O)c1cccc(Oc2ccccc2)c1 [X-Cop-D-Dap-2-Nal + Acid 111]
22 | 0.021 | O=C(/C=C/c1ccc2ccccc2c1)NC[C@H]1NC(=O)[C@@H]2CN(CCO2)C(=O)CCSSCCNC(=O)[C@H](Cc2ccc3ccccc3c2)NC1=O [X-Cop-D-Dap-2-Nal + Acid 112]

Row | fraction of fluorescent probe displaced | Compound
23 | -0.00533 | O=C(CCS(=O)(=O)c1ccccc1)NC[C@H]1NC(=O)[C@@H]2CN(CCO2)C(=O)CCSSCCNC(=O)[C@H](Cc2ccc3ccccc3c2)NC1=O [X-Cop-D-Dap-2-Nal + Acid 114]
24 | -0.00533 | O=C(NC[C@H]1NC(=O)[C@@H]2CN(CCO2)C(=O)CCSSCCNC(=O)[C@H](Cc2c[nH]c3cc(Cl)ccc23)NC1=O)c1ccc(Cl)s1 [X-Cop-D-Dap-Cl-Trp + Acid 14]
25 | 0.035 | O=C(/C=C/c1ccc(OCc2ccccc2)cc1)NC[C@H]1NC(=O)[C@@H]2CN(CCO2)C(=O)CCSSCCNC(=O)[C@H](Cc2c[nH]c3cc(Cl)ccc23)NC1=O [X-Cop-D-Dap-Cl-Trp + Acid 110]
26 | 0.055 | O=C(/C=C/c1ccc2ccccc2c1)NC[C@H]1NC(=O)[C@@H]2CN(CCO2)C(=O)CCSSCCNC(=O)[C@H](Cc2c[nH]c3cc(Cl)ccc23)NC1=O [X-Cop-D-Dap-Cl-Trp + Acid 112]
27 | 0.015 | O=C(/C=C/c1ccc(OCc2ccccc2)cc1)NC[C@H]1NC(=O)[C@@H]2CN(CCO2)C(=O)CCSSCCNC(=O)[C@@H](Cc2c[nH]c3ccccc23)NC1=O [X-Cop-D-Dap-D-Trp + Acid 110]
28 | 0.021 | O=C(/C=C/c1ccc2ccccc2c1)NC[C@H]1NC(=O)[C@@H]2CN(CCO2)C(=O)CCSSCCNC(=O)[C@@H](Cc2c[nH]c3ccccc23)NC1=O [X-Cop-D-Dap-D-Trp + Acid 112]
29 | 0.008 | CC(Oc1cccc(Cl)c1)C(=O)NCC1NC(=O)C2CN(CCO2)C(=O)CCSSCCNC(=O)C(Cc2c[nH]c3ccccc23)NC1=O [X-Cop-D-Dap-D-Trp + Acid 113]
30 | -0.00533 | Cn1cc(C[C@@H]2NC(=O)[C@@H](CNC(=O)c3ccc(Cl)s3)NC(=O)[C@@H]3CN(CCO3)C(=O)CCSSCCNC2=O)c2ccccc21 [X-Cop-D-Dap-Me-Trp + Acid 14]
31 | 0.050 | Cn1cc(C[C@@H]2NC(=O)[C@@H](CNC(=O)c3ccc4ccccc4c3)NC(=O)[C@@H]3CN(CCO3)C(=O)CCSSCCNC2=O)c2ccccc21 [X-Cop-D-Dap-Me-Trp + Acid 107]
32 | 0.021 | Cn1cc(C[C@@H]2NC(=O)[C@@H](CNC(=O)/C=C/c3ccc(Cl)cc3)NC(=O)[C@@H]3CN(CCO3)C(=O)CCSSCCNC2=O)c2ccccc21 [X-Cop-D-Dap-Me-Trp + Acid 108]
33 | 0.028 | Cn1cc(CC2NC(=O)C(CNC(=O)C=Cc3ccc(OCc4ccccc4)cc3)NC(=O)C3CN(CCO3)C(=O)CCSSCCNC2=O)c2ccccc21 [X-Cop-D-Dap-Me-Trp + Acid 110]
34 | -0.019 | CN1C(=O)[C@@H](CNC(=O)c2ccc(Cl)s2)NC(=O)[C@@H]2CN(CCO2)C(=O)CCSSCCNC(=O)[C@@H]1Cc1c[nH]c2ccccc12 [X-Cop-D-Dap-NMe-Trp + Acid 14]
35 | -0.019 | CN1C(=O)[C@@H](CNC(=O)c2ccc(Cl)cc2)NC(=O)[C@@H]2CN(CCO2)C(=O)CCSSCCNC(=O)[C@@H]1Cc1c[nH]c2ccccc12 [X-Cop-D-Dap-NMe-Trp + Acid 25]
36 | 0.008 | CN1C(=O)[C@@H](CNC(=O)/C=C/c2ccc(Cl)cc2)NC(=O)[C@@H]2CN(CCO2)C(=O)CCSSCCNC(=O)[C@@H]1Cc1c[nH]c2ccccc12 [X-Cop-D-Dap-NMe-Trp + Acid 108]
37 | 0.015 | CN1C(=O)[C@@H](CNC(=O)/C=C/c2ccc(OCc3ccccc3)cc2)NC(=O)[C@@H]2CN(CCO2)C(=O)CCSSCCNC(=O)[C@@H]1Cc1c[nH]c2ccccc12 [X-Cop-D-Dap-NMe-Trp + Acid 110]
38 | 0.00133 | CN1C(=O)C(CNC(=O)c2cccc(Oc3ccccc3)c2)NC(=O)C2CN(CCO2)C(=O)CCSSCCNC(=O)C1Cc1c[nH]c2ccccc12 [X-Cop-D-Dap-NMe-Trp + Acid 111]
39 | 0.035 | CN1C(=O)[C@@H](CNC(=O)/C=C/c2ccc3ccccc3c2)NC(=O)[C@@H]2CN(CCO2)C(=O)CCSSCCNC(=O)[C@@H]1Cc1c[nH]c2ccccc12 [X-Cop-D-Dap-NMe-Trp + Acid 112]
40 | 0.00133 | O=C(NC[C@H]1NC(=O)[C@@H]2CN(CCO2)C(=O)CCSSCCNC(=O)[C@H](Cc2c[nH]c3ccccc23)NC1=O)c1ccc(Cl)cc1 [X-Cop-D-Dap-Trp + Acid 25]
41 | 0.021 | O=C(C=Cc1ccc(Cl)cc1)NCC1NC(=O)C2CN(CCO2)C(=O)CCSSCCNC(=O)C(Cc2c[nH]c3ccccc23)NC1=O [X-Cop-D-Dap-Trp + Acid 108]
42 | -0.00533 | O=C(/C=C/c1ccc(OCc2ccccc2)cc1)NC[C@H]1NC(=O)[C@@H]2CN(CCO2)C(=O)CCSSCCNC(=O)[C@H](Cc2c[nH]c3ccccc23)NC1=O [X-Cop-D-Dap-Trp + Acid 110]
43 | 0.015 | O=C(NC[C@H]1NC(=O)[C@@H]2CN(CCO2)C(=O)CCSSCCNC(=O)[C@H](Cc2c[nH]c3ccccc23)NC1=O)c1cccc(Oc2ccccc2)c1 [X-Cop-D-Dap-Trp + Acid 111]
